Where “and” joins values, the source holds several entries; their conditions need not be identical. Identical values can stand only once.
Key:
Assay type in all cases: cell-based, Pseudomonas aeruginosa
P. aeruginosa PAO1 = assay: microbe, parasite or virus in culture; settings: for secreted pyoverdine relative to untreated control, fluorescence at 460 nm normalized to CFU/mL: KM-5-25 70 μM or KM-5-66 50 μM, 27 h, M63 media; for viability at 50 µM: Pseudomonas aeruginosa, PAO1, 27 h, read-out: viable cells relative to the untreated control
Protocol: Cultures of P. aeruginosa PAO1 treated with KM-5-25 (70 μM) or KM-5-66 (50 μM) were grown for 27 h prior to diluting the contents of each well in PBS (pH 7.4) and plating the cells on PIA plates for enumeration of CFU/mL. The 500-fold diluted solution was clarified by centrifugation and the pyoverdine in the cell-free supernatant was analyzed by acquiring fluorescence emission spectra (430–550 nm) with excitation at 400 nm (10 nm slit width) and emission at λmax = 460 nm (10 nm slit width) using a PerkinElmer LS50B spectrophotometer.
Figure S5. P. aeruginosa cells treated with 4-aminoisoindoline-1,3-dione derivatives overproduce pyoverdine. (A) P. aeruginosa cultures treated with KM-5-25 (70 µM) or KM-5-66 (50 µM) for 27 h have ~35% of the viable cells in the untreated control. (B) Fluorescence spectra from cell -free supernatant corresponding to untreated cultures ( solid line), treated with KM-5-25 (dashed line), or treated with KM-5-66 (dotted line). (C) Fluorescence intensity normalized to the number of viable […]
pyoverdine than cells in the untreated control. Averages and standard deviations for 3 biological replicates are shown. p < 0.01 denoted by ** and p < 0.001 by *** relative to untreated.
(1 picture or pasted object on this page, not shown here)

[1] = system: Pellicles of P. aeruginosa PAO1 expressing EYFP; assay: Pellicle biofilm assay, CLSM imaging and COMSTAT viable biomass; settings: 24 h, approximately 1.2× IC50 (KM-5-25 80 μM, KM-5-66 50 μM)
Protocol: Pellicle biofilms of EYFP-expressing P. aeruginosa PAO1 or clinical isolates were grown in PI media supplemented with 20 μM Fe. Starter cultures were diluted to OD600 = 0.001 in 4 mL media, placed in 35 × 10 mm Petri dishes and incubated statically at 30 °C for 48 h. The pellicles were transferred onto circular (1.5 cm diameter) glass coverslips by gently allowing the surface of a coverslip to contact a pellicle. The pellicle-adhered coverslip was washed in PBS and then deposited on top of 1.5 mL AB challenge media contained in a well of a 12-well microplate, with the pellicle exposed to the media. […] The coverslip-adhered pellicles were exposed to challenge media at 30 °C for 24 h, changing the challenge media every 12 h by transferring the pellicle-adhered coverslip to a new plate containing prewarmed challenge media.
Excess fluorescent dye was washed with PBS, the coverslip was mounted on a glass slide using 5 μL SlowFade (Invitrogen Life Technologies) and the edges sealed with fingernail polish. CLSM image stacks (z-step size of 0.3 μm) were acquired with the aid of a Leica TCS SP8 microscope, as described above. Quantitative analysis was performed by determination of pellicle biomass using COMSTAT[55] and the Otsu method of automatic thresholding.[86]

[2] = system: EYFP-expressing P. aeruginosa PAO1 pellicles; assay: Viable cells (CFU/mL) dispersed from pellicle biofilms; settings: 24 h; for viable cell count relative to the untreated pellicle (% cell survival): KM-5-25 40 μM (0.6× IC50) or KM-5-66 20 μM (0.5× IC50)
Protocol: Pellicle biofilms were grown as described above. Planktonic and loosely attached cells were washed (3 times) by immersing the coverslip-adhered pellicles (biofilm facing up) into a well of a 12-well plate containing 3 mL PBS, and incubating (5 min) with gentle rocking. To remove the pellicle from the coverslip, break the extracellular matrix and release cells from the biofilm, the coverslip-adhered pellicle was placed in a 50 mL conical tube containing a 2 mL suspension of zirconia beads (0.1 mm diameter, BioSpec Products), 10 mL PBS, 0.2 μg/mL alginate lyase and 0.2 μg/mL DNase. The resultant mixture was incubated at room temperature for 3 min, followed by vigorous vortexing for 4 min. After sedimentation of the zirconia beads, a 100 μL aliquot was used for serial dilution and plating on PIA plates for subsequent enumeration of viable cells (CFU/mL).

[3] = system: P. aeruginosa clinical isolate PA_1076058; assay: Viable cells (CFU/mL) dispersed from pellicle biofilms of a clinical isolate; settings: PA_1076058 pellicles, 24 h, 1.2× IC50 (KM-5-25 80 μM, KM-5-66 50 μM)
Protocol: (§1) Pellicle biofilms were grown as described above.

[4] = system: P. aeruginosa clinical isolate PA_1081725; assay: as above; settings: PA_1081725 pellicles, 24 h, 1.2× IC50 (KM-5-25 80 μM, KM-5-66 50 μM)
Protocol: as §1

[5] = system: P. aeruginosa PAO1 cells dispersed from pellicles; assay: Total intracellular iron in biofilm-embedded cells; settings: 2-day old pellicles, 24 h, KM-5-25 40 μM or KM-5-66 20 μM
Protocol: Pellicle biofilms were grown for 48 h as described above. The pellicles were transferred onto square (2 × 2 cm) glass coverslips by gently contacting the pellicle with the coverslip. […] After the zirconia beads had sedimented, a 100 μL aliquot was sampled from the cell suspension for plating and enumeration of viable cells and a 14 mL sample was used to harvest the cells by centrifugation (20 min, 400 rpm). The cell pellet was resuspended in 1 mL PBS, transferred to a 1.5 mL microcentrifuge tube, centrifuged for 10 min at 12 500 rpm at 4 °C and the cell pellet frozen at −80 °C. The frozen cells were subjected to three freeze–thaw cycles and then lysed by addition of 200 μL of lysis buffer (50 mM Tris-HCl buffer (pH 8.0) containing 10% (v/v) glycerol, 20 mg/mL lysozyme, 0.2 mg/mL DNase, 0.1 M NaCl, 1 mM MgSO4 and 1% (v/v) Triton-X100) and incubated at ambient temperature (30 min) and at 37 °C (30 min). […] Levels of total intracellular iron were determined as reported previously:[23],[87] […] The iron concentration was measured from the absorbance of the Fe^2+–Ferene S complex (ε593 = 34.5 mM^–1 cm^–1),[88] normalized by the viable cell counts and reported as Fe atoms per cell.

[6] = 2-day old pellicles, 1.2× IC50 (KM-5-25 80 μM, KM-5-66 50 μM)
[7] = compound at 1.2× IC50 combined with colistin 25× MIC (20 μM)
[8] = compound at 1.2× IC50 combined with colistin 25× MIC
[9] = compound at 1.2× IC50 combined with colistin 50× MIC (40 μM)
[10] = compound at 1.2× IC50 combined with colistin 50× MIC
[11] = compound at 1.2× IC50 combined with tobramycin 25× MIC (27 μM)
[12] = compound at 1.2× IC50 combined with tobramycin 25× MIC
[13] = compound at 1.2× IC50 combined with tobramycin 50× MIC

| SMILES | secreted pyoverdine relative to untreated control, fluorescence at 460 nm normalized to CFU/mL (P. aeruginosa PAO1) | viability at 50 µM (P. aeruginosa PAO1) | cells in the pellicle killed (COMSTAT) [1] | % survival relative to cells in the pretreated biofilm ([2]; 2-day old pellicles, 0.6× IC50) | % survival relative to cells in the pretreated biofilm [2, 6] | viable cell count relative to the untreated pellicle (% cell survival) ([2]; 2-day old pellicles) | % survival, combination treatment [2, 7] | reduction of viable cells relative to treatment with colistin alone [2, 8] | % survival, combination treatment [2, 9] | reduction of viable cells relative to treatment with colistin alone [2, 10] | % survival, combination treatment [2, 11] | reduction of viable cells relative to treatment with tobramycin alone [2, 12] | % survival, combination treatment [2, 13] | reduction of viable cells relative to treatment with tobramycin alone [2, 13] | reduction of viable cells [3] | reduction of viable cells [4] | total intracellular iron normalized to viable cell counts, relative to untreated biofilms [5] | % survival relative to cells in the pellicles prior to treatment ([2]; 2-day old pellicles, 0.3× IC50) |
| --- | --- | --- | --- | --- | --- | --- | --- | --- | --- | --- | --- | --- | --- | --- | --- | --- | --- | --- |
| O=C1NC(=O)c2c(NCc3cc(Cl)ccc3O)cccc21 [KM-5-25, 4-((5-Chloro-2-hydroxybenzyl)amino)isoindoline-1,3-dione] | ~5 fold | ~35% | ~85% | ~38% | ~25% | 42% and 42.5% | ~1% | ~1 log | ~0.5% | ~0.7 log | ~0.5% | approximately 2.5 log | ~0.003% | ~4.7 log | approximately 80% | approximately 80% | ~2.5 fold | – |
| O=C1NC(=O)c2c(NCCCc3cc(O)cc(Cl)c3)cccc21 [KM-5-66, 4-((3-(3-Chloro-5-hydroxyphenyl)propyl)amino)isoindoline-1,3-dione] | ~5 fold | ~35% | ~85% | ~21% | ~15% | 37% and 37.2% | ~0.3% | approximately 1.7 log | ~0.02% | ~1.9 log | 5% | approximately 1.5 log | 1% | ~2 log | approximately 80% | approximately 80% | ~2.5 fold | approximately 57% |
